Values joined by “and” are separate entries in the source; they are usually repeats but may differ in a detail not shown here. Equal entries are not always repeated. “Also recorded” adds a separate entry of the source. Where two headings read alike, the source gives them in different places.
Legend:
TR-BBB cells [1] = test: Inhibition of [14C]L-citrulline uptake in TR-BBB cells by unlabeled amino acids, transporter inhibitors and drugs; type: cell-based, rat; details: for activity at 2000 µM / activity at 20000 µM / IC50: Rattus norvegicus; for activity at 2000 µM / activity at 20000 µM / Ki / IC50 / Uptake of [14C]L-citrulline (% of control): 5 min; for Effect on [14C]L-citrulline uptake: unlabeled compound present; for Decrease of [14C]L-citrulline uptake: discussion of Table 3; for Mode of inhibition of [14C]L-citrulline uptake / Ki: Lineweaver-Burk plot; for Ki: 300 μM inhibitor
Method: (§1) The TR-BBB cells established from transgenic rats harboring the temperature-sensitive simian virus 40 large T-antigen, an in vitro BBB model, were cultured at 33 °C as described previously (21). TR-BBB cells were received from Professor Tetsuya Terasaki (Tohoku University, Japan) and were cultured with Dulbecco’s modified Eagle’s medium (Invitrogen, San Diego, CA), supplemented with 10% fetal bovine serum, 100 U/mL penicillin, 100 μg/mL streptomycin (Invitrogen, San Diego, CA) and 15 μg/L endothelial cell growth factor (Roche, Mannheim, Germany) at 33 °C in a humidified atmosphere of 5% CO2/air. On rat tail collagen type I-coated 24 well culture plates (IWAKI, Tokyo, Japan) initial seeding was carried out at 1 × 10^5 cells/well for the uptake study. After incubation for 2 days at 33 °C, the cultures became confluent and then they were used in the transport study. L-Citrulline free medium was used all experiments except for experiments on saturation kinetics of [^14C]L-citrulline uptake (Fig. 2), Lineweaver-Burk plots for [^14C]L-citrulline uptake (Fig. 4), or inhibitory effect of L-amino acids as a control (Table 2).
(§2) The [^14C] L-citrulline uptake study was performed according to the previous report. Briefly, extracellular fluid (ECF) buffer containing [^14C]L-citrulline (44.4 μM) in the presence or absence of unlabeled inhibitors was added to the TR-BBB cells and then incubated at pH 7.4 and 37 °C for the designated time (5 min). Uptake was terminated by the addition of ice-cold ECF buffer. A Na^+ free transport medium was prepared by using LiCl, choline chloride, sodium gluconate and KHCO3 instead of NaCl and NaHCO3, respectively. The cells were then solubilized by incubation overnight in 750 μL of 1 N NaOH at room temperature, and the measurement of radioactivity was performed in a liquid scintillation counter (LS6500; Beckman, Fullerton, CA). Cell to medium ratio (μL/mg protein) was calculated as follows: the radioactivity (dpm/μL) in the sample per milligram cell protein (dpm/mg protein).
To analyze the competitive nature of L-dopa and gabapentin for [^14C]L-citrulline uptake, Lineweaver-Burk plots were generated. The inhibitory constant (K i) was calculated from Eq. (2):2 V=Vmax⋅C/Km⋅1+I/Ki+C where I corresponds to the concentration of L-dopa or gabapentin, respectively.

TR-BBB cells [2] = test: [14C]L-citrulline uptake study in TR-BBB cells (time course, ion dependence, saturation kinetics); type: in vitro ADME, rat; details: for Uptake of [14C]L-citrulline (% of control): ion dependence: Na+ and/or Cl- replaced in the uptake buffer by the named salt, mean ± S.E.M.
Method: as §1, §2
For kinetic studies, the Michaelis-Menten constant (K m) and the maximum uptake rate (V max) of [^14C] L-citrulline were estimated from Eq. (1):1 V=Vmax⋅C/Km+C
Where V and C are the initial uptake rate of [^14C] L-citrulline at 5 min and the concentration of L-citrulline, and V max is the maximum uptake rate for the saturable component.

[3] = Table 4, drug 2 mM, pH 7.4, 37 °C, mean ± S.E.M., read-out: Uptake of [14C]L-citrulline (% of control)
[4] = pH 7.4, read-out: IC50 for inhibition of [14C]L-citrulline uptake
[5] = Table 4, drug 0.5 mM, pH 7.4, 37 °C, mean ± S.E.M.
[6] = Table 3, transporter inhibitor 2 mM, pH 7.4, 37 °C, mean ± S.E.M.
[7] = Table 2, L-amino acid 2 mM, pH 7.4, 37 °C, mean ± S.E.M.
[8] = pH 7.4, read-out: Uptake of [14C]L-citrulline (% of control), Table 2, L-amino acid 2 mM, pH 7.4, 37 °C, mean ± S.E.M.
[9] = Table 2, L-amino acid 2 mM, pH 7.4, 37 °C, mean ± S.E.M., read-out: Uptake of [14C]L-citrulline (% of control)
[10] = TR-BBB cells, pH 7.4, 37 °C, read-out: IC50 for inhibition of [14C]L-citrulline uptake
[11] = Table 2, L-amino acid 20 mM, pH 7.4, 37 °C, mean ± S.E.M.

## NC1(C(=O)O)CC2CCC1C2 (centres unmarked) [BCH, 2-aminobicyclo-(2,2,1)-heptane-2-carboxylic acid]
TR-BBB cells [1]; Table 3, transporter inhibitor 2 mM, pH 7.4, 37 °C, mean ± S.E.M., read-out: Uptake of [14C]L-citrulline (% of control)
  activity at 2000 µM: 25.3 ± 4.4%
TR-BBB cells [1]; Table 3, transporter inhibitor 20 mM, pH 7.4, 37 °C, mean ± S.E.M., read-out: Uptake of [14C]L-citrulline (% of control)
  activity at 20000 µM: 28.1 ± 11.6%
TR-BBB cells [1]; TR-BBB cells
  Effect on [14C]L-citrulline uptake: markedly inhibited
TR-BBB cells [1]
  Decrease of [14C]L-citrulline uptake: about 75%

## C[N+](C)(C)CCO.[Cl-] [Choline Chloride, choline chloride]
TR-BBB cells [2]; pH 7.4, 37 °C, 5 min
  Uptake of [14C]L-citrulline (% of control): 83.3 ± 5.7 % of control

## NCCc1ccc(O)c(O)c1 [Dopamine]
TR-BBB cells [1]; [3]
  activity at 2000 µM: 110 ± 2.7%
TR-BBB cells [1]; TR-BBB cells
  Effect on [14C]L-citrulline uptake: no effect; also recorded: no significant effects

## NCC1(CC(=O)O)CCCCC1 [Gabapentin]
TR-BBB cells [1]
  Mode of inhibition of [14C]L-citrulline uptake: competitively inhibited
TR-BBB cells [1]; pH 7.4, 37 °C
  Ki: 679 µM
TR-BBB cells [1]; [4]
  IC50: 223 µM
TR-BBB cells [1]; TR-BBB cells
  Effect on [14C]L-citrulline uptake: strongly inhibited; also recorded: significantly inhibited
TR-BBB cells [1]; [5]
  Uptake of [14C]L-citrulline (% of control): 45.0 ± 2.52 % of control
TR-BBB cells [1]; Table 4, drug 5 mM, pH 7.4, 37 °C, mean ± S.E.M.
  Uptake of [14C]L-citrulline (% of control): 29.6 ± 2.73 % of control

## COc1ccc2c3c([nH]c2c1)C(C)=NCC3 [Harmaline]
TR-BBB cells [1]
  Decrease of [14C]L-citrulline uptake: about 40%

## NC(N)=NCCCC[C@H](N)C(=O)O [Homoarginine]
TR-BBB cells [1]; TR-BBB cells
  Effect on [14C]L-citrulline uptake: no inhibition effect
TR-BBB cells [1]; [6]
  Uptake of [14C]L-citrulline (% of control): 95.98 ± 13.8 % of control

## C[C@H](N)C(=O)O [L-Alanine]
TR-BBB cells [1]; TR-BBB cells
  Effect on [14C]L-citrulline uptake: significantly inhibited
TR-BBB cells [1]; [7]
  Uptake of [14C]L-citrulline (% of control): 73.0 ± 6.4 % of control

## N=C(N)NCCC[C@H](N)C(=O)O [L-Arginine]
TR-BBB cells [1]; [4]
  IC50: 33400 µM
TR-BBB cells [1]; [8]
  activity at 2000 µM: 59.9 ± 6.6%
TR-BBB cells [1]; pH 7.4, read-out: Uptake of [14C]L-citrulline (% of control), Table 2, L-amino acid 20 mM, pH 7.4, 37 °C, mean ± S.E.M.
  activity at 20000 µM: 53.2 ± 4.4%
TR-BBB cells [1]; TR-BBB cells
  Effect on [14C]L-citrulline uptake: significantly inhibited

## N[C@@H](CC(=O)O)C(=O)O [L-Aspatate, L-aspartate]
TR-BBB cells [1]; TR-BBB cells
  Effect on [14C]L-citrulline uptake: did not inhibit
TR-BBB cells [1]; [7]
  Uptake of [14C]L-citrulline (% of control): 101.5 ± 8.6 % of control

## NC(=O)NCCC[C@H](N)C(=O)O [L-Citrulline]
TR-BBB cells [2]; 44.4 μM, 37 °C, ECF buffer
  Time-course of [14C]L-citrulline uptake: linear for 5 min
TR-BBB cells [2]; absence of Na+ or Cl- in the uptake buffer
  Ion dependence of [14C]L-citrulline uptake: no significant difference
TR-BBB cells [2]; first (Km1) of two saturable components, 0–5 mM unlabeled L-citrulline, 5 min, pH 7.4, 37 °C
  Michaelis-Menten constant Km1 of [14C]L-citrulline uptake: 30.9 ± 1.0 µM and 30.9 µM
TR-BBB cells [2]; first saturable component, 5 min, pH 7.4, 37 °C
  Vmax1 of [14C]L-citrulline uptake: 185 nmol/mg/min
TR-BBB cells [2]; second (Km2) of two saturable components, 0–5 mM unlabeled L-citrulline, 5 min, pH 7.4, 37 °C
  Michaelis-Menten constant Km2 of [14C]L-citrulline uptake: 1.69 ± 0.43 mM and 1.69 mM
TR-BBB cells [2]; second saturable component, 5 min, pH 7.4, 37 °C
  Vmax2 of [14C]L-citrulline uptake: 3.19 µmol/mg/min
TR-BBB cells [1]; [8]
  activity at 2000 µM: 36 ± 2.1%

## N[C@@H](CS)C(=O)O [L-Cysteine]
TR-BBB cells [1]; [9]
  activity at 2000 µM: 48.4 ± 2.6%
TR-BBB cells [1]; TR-BBB cells
  Effect on [14C]L-citrulline uptake: significantly inhibited

## N[C@@H](Cc1ccc(O)c(O)c1)C(=O)O [L-Dopa]
TR-BBB cells [1]
  Mode of inhibition of [14C]L-citrulline uptake: competitively inhibited
TR-BBB cells [1]; pH 7.4, 37 °C
  Ki: 486 µM
TR-BBB cells [1]; [10]
  IC50: 501 µM
TR-BBB cells [1]; TR-BBB cells
  Effect on [14C]L-citrulline uptake: strongly inhibited; also recorded: significantly inhibited
TR-BBB cells [1]; [5]
  Uptake of [14C]L-citrulline (% of control): 52.1 ± 6.6 % of control
TR-BBB cells [1]; Table 4, drug 2 mM, pH 7.4, 37 °C, mean ± S.E.M.
  Uptake of [14C]L-citrulline (% of control): 21.6 ± 2.8 % of control

## N[C@@H](CCC(=O)O)C(=O)O [L-Glutamate]
TR-BBB cells [1]; pH 7.4, read-out: Uptake of [14C]L-citrulline (% of control)
  activity at 2000 µM: 103 ± 7.8%
TR-BBB cells [1]; TR-BBB cells
  Effect on [14C]L-citrulline uptake: did not inhibit

## NC(=O)CC[C@H](N)C(=O)O [L-Glutamine]
TR-BBB cells [1]; [9]
  activity at 2000 µM: 37.5 ± 1.3%

## CC(C)C[C@H](N)C(=O)O [L-Leucine]
TR-BBB cells [1]; [7]
  Uptake of [14C]L-citrulline (% of control): 49.4 ± 5.8 % of control
TR-BBB cells [1]; [11]
  Uptake of [14C]L-citrulline (% of control): 17.2 ± 3.9 % of control

## NCCCC[C@H](N)C(=O)O [L-Lysine]
TR-BBB cells [1]; TR-BBB cells
  Effect on [14C]L-citrulline uptake: significantly inhibited
TR-BBB cells [1]; [7]
  Uptake of [14C]L-citrulline (% of control): 74.5 ± 9.0 % of control
TR-BBB cells [1]; [11]
  Uptake of [14C]L-citrulline (% of control): 66.78 ± 2.1 % of control

## N[C@@H](Cc1ccccc1)C(=O)O [L-Phenylalanine]
TR-BBB cells [1]; [10]
  IC50: 68.9 µM
TR-BBB cells [1]; TR-BBB cells
  Effect on [14C]L-citrulline uptake: strongly inhibited
TR-BBB cells [1]; [7]
  Uptake of [14C]L-citrulline (% of control): 13.7 ± 1.8 % of control
TR-BBB cells [1]; [11]
  Uptake of [14C]L-citrulline (% of control): 13.4 ± 1.4 % of control

## N[C@@H](CO)C(=O)O [L-Serine]
TR-BBB cells [1]; [9]
  activity at 2000 µM: 79.7 ± 2.5%
TR-BBB cells [1]; TR-BBB cells
  Effect on [14C]L-citrulline uptake: significantly inhibited

## CC(C)[C@H](N)C(=O)O [L-Valine]
TR-BBB cells [1]; [7]
  Uptake of [14C]L-citrulline (% of control): 31.5 ± 1.4 % of control

## [Cl-].[Li+] [LiCl]
TR-BBB cells [2]; pH 7.4, 37 °C, 5 min
  Uptake of [14C]L-citrulline (% of control): 116.2 ± 5.2 % of control

## CNC(C)(C)C(=O)O [MeAIB, N-(methylamino) isobutyric acid]
TR-BBB cells [1]; TR-BBB cells
  Effect on [14C]L-citrulline uptake: no inhibition effect
TR-BBB cells [1]; [6]
  Uptake of [14C]L-citrulline (% of control): 99.8 ± 6.3 % of control

## CN1C(=O)C=CC1=O [Methylmaleimide, L-methylmaleimide]
TR-BBB cells [1]; TR-BBB cells
  Effect on [14C]L-citrulline uptake: no inhibition effect
TR-BBB cells [1]; [6]
  Uptake of [14C]L-citrulline (% of control): 103.2 ± 10.1 % of control

## C=C[C@H]1C[N@@]2CC[C@H]1C[C@@H]2[C@@H](O)c1ccnc2ccc(OC)cc12 [Qunidine, Quinidine]
TR-BBB cells [1]; 500 µM
  Uptake of [14C]L-citrulline (% of control): 52.5 ± 3.0 % of control
TR-BBB cells [1]; TR-BBB cells
  Effect on [14C]L-citrulline uptake: significantly inhibited

## O=C([O-])[C@H](O)[C@@H](O)[C@H](O)[C@H](O)CO.[Na+] [Sodium gluconate, sodium gluconate]
TR-BBB cells [2]; pH 7.4, 37 °C, 5 min
  Uptake of [14C]L-citrulline (% of control): 103.9 ± 6.8 % of control

## NCCS(=O)(=O)O [Taurine]
TR-BBB cells [1]; [3]
  activity at 2000 µM: 90.5 ± 4.4%
TR-BBB cells [1]; TR-BBB cells
  Effect on [14C]L-citrulline uptake: no significant effects

## Nc1c2c(nc3ccccc13)CCCC2 [tacrine]
TR-BBB cells [1]; TR-BBB cells
  Effect on [14C]L-citrulline uptake: no significant inhibition effect

Reference: article PMC5424428, “Characteristics of L-citrulline transport through blood-brain barrier in the brain capillary endothelial cell line (TR-BBB cells)” (Journal of Biomedical Science, 2017)
